Earlier results as cited in US7459569B2, “Method of forming iron hydroxypyrone compounds” (Vitra Pharmaceuticals Limited, priority 2002, dated 2008).

Conditions: given on an empty stomach

Structure (SMILES): O=S(=O)([O-])[O-].[Fe+2] [ferrous sulphate]
- absorption rate: 30%
